The values below come from US8957063B2, “Amine and ether compounds which modulate the CB2 receptor” (priority 2008, dated 2015).

The target of the test is T1, human CB2R (Homo sapiens, UniProt P34972).
T1 construct: host or cells: CHO cells
As to the kind of experiment: CB2R mediated modulation of cAMP synthesis. Type of test: cell-based. The procedure:
B. CB2R Mediated Modulation of cAMP Synthesis:
Compounds of the invention were evaluated for their CB2 agonist or inverse agonistic activity in accordance with the following experimental method.
CHO cells expressing human CB2R (Euroscreen) were plated at a density of 5000 cells per well in 384 well plates and incubated overnight at 37° C. After removing the media, the cells were treated with test compounds diluted in stimulation buffer containing 1 mM IBMX, 0.25% BSA and 10 uM Forskolin. The assay was incubated for 30 minutes at 37° C. Cells were lysed and the cAMP concentration was measured using DiscoverX-XS cAMP kit, following the manufacturer's protocol. In this setting, agonists will decrease forskolin induced production of cAMP while inverse agonists will further increase forskolin induced production of cAMP. EC50 of agonists were calculated as follows. The maximal amount of cAMP produced by forskolin compared to the level of cAMP inhibited by 1 uM CP55940 is defined as 100%. The EC50 value of each test compound was determined as the concentration at which 50% of the forskolin-stimulated cAMP synthesis was inhibited. Data was analyzed using a four-parameter logistic model. (Model 205 of XLfit 4.0).

T1 sequence (P34972 whole entry): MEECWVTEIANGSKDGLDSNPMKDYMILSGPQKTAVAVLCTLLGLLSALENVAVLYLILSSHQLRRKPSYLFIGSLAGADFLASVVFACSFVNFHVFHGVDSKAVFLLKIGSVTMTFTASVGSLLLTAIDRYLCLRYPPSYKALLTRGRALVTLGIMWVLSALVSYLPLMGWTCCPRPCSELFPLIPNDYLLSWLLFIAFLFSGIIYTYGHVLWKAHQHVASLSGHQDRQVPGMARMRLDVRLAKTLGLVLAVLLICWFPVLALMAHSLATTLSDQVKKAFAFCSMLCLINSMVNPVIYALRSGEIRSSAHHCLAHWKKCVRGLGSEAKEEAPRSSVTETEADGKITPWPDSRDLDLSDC

For `CN(C(C)(C)C(=O)Nc1cc(C(C)(C)C)on1)S(=O)(=O)c1ccc(F)cc1` [Example 49, N-(5-tert-Butyl-isoxazol-3-yl)-2-[(4-fluoro-benzenesulfonyl)-methyl-amino]-2-methyl-propionamide], the EC50 amounted to 0.13 nM.
Then `CN(C(=O)c1ccc(Cl)cc1)C(C)(C)C(=O)Nc1cc(C(C)(C)C)on1` [Example 50, N-[1-(5-tert-Butyl-isoxazol-3-ylcarbamoyl)-1-methyl-ethyl]-4-chloro-N-methyl-benzamide], with 124 nM.
Then `CN(C(=O)N1CCS(=O)(=O)CC1)C(C)(C)C(=O)Nc1cc(C(C)(C)C)on1` [Example 51, 1,1-Dioxo-1λ6-thiomorpholine-4-carboxylic acid [1-(5-tert-butyl-isoxazol-3-ylcarbamoyl)-1-methyl-ethyl]-methyl-amide], with 39 nM.

Usually EC50 stands for the concentration that produces a half-maximal response. A high value points to lower potency in that assay.
